# Results: a melting point compilation (Tetko et al.; mined from patent text by program, amines drawn as free bases though some values may be those of a salt)
row,SMILES,melting point [°C]
1,N#Cc1ccc(Cn2c3cc(O)c(O)cc3c3ccc(O)c(O)c32)cc1,225 to 227
2,CCc1nnc(-c2ccc(F)c(F)c2Nc2ccc(I)cc2F)o1,97 to 98
3,COCc1nnc(NCCCN2CC3CCC(CC3)C2)c2cc3ccccn3c12,229 to 232
4,CN1CCC(C2c3ccccc3CCn3ncnc32)CC1 (stereo not given),134
5,Cc1cc([N+](=O)[O-])cc(C(=O)NC(C)C)c1NC(=O)c1cc(C(F)(F)F)nn1-c1ncccc1Cl,170 to 172
6,O=C1c2c([N+](=O)[O-])cccc2S(=O)(=O)N1CCO,140 to 141
7,CC(C)(C)OC(=O)NCC(=O)Nc1ccc(O)cc1,152 to 154
8,CC(C)(C)OC(=O)N1C(=O)[C@H](O)[C@@H]1CC1CCCCC1,105 to 106
9,O=Cc1cc(-n2cnnn2)cc2ccoc12,174 to 175
10,COc1ccc(C2=NN(C3CCN(C(=O)c4cccnc4)CC3)C(=O)CC2)cc1OC,162 to 164
11,Fc1ccc(Cn2c(CC3CCN(Cc4ccccc4)CC3)nc3cncnc32)cc1,136
12,Brc1ccc(-c2cn([C@H]3CN4CCC3CC4)nn2)s1,146
13,Cn1ncnc1COc1nn2c(-c3cccs3)nncc2c1-c1ccccc1,209
14,Clc1ccc(-c2ccc(C=CC3COC4(CCCCC4)OO3)cc2)cc1 (stereo not given),109 to 111
15,C/C(=C\C(=O)NC1CC1)c1cccc(F)c1,119
16,CCOC(=O)COc1ccc(SCCc2cccc3sc(-c4ccc(C(F)(F)F)cc4)nc23)cc1C,97 to 100
17,CN(C)CCN(C(=O)N(C)C)c1ccc(N)cn1,118 to 119
18,CCC(=O)Nc1ccc2oc3c(c2c1)CCCC3,164 to 165
19,CC(C)CNC(=O)C(C)(C)c1ccc(-c2cccn2C)cc1,59 to 60
20,CC(N)c1nc2cccc(Cl)c2c(=O)n1-c1cc(F)cc(F)c1 (stereo not given),200 to 202

row,SMILES,melting point [°C]
1,N#Cc1ccc2c(c1)nc1n2CCC(=O)N1,> 340
2,CS(=O)(=O)Nc1nc(CCN2CCC(c3c[nH]c4ccccc34)CC2)cs1,141 to 144
3,CC1(C)COC(c2ccc3c(c2-c2c(C4=NC(C)(C)CO4)ccc4c2OCO4)OCO3)=N1,152 to 154
4,Cc1cc(NC(=O)c2c(C(F)(F)F)nc3c(C(F)(F)F)cccc3c2O)no1,216
5,O=C(O)c1c(C(F)(F)F)nn(-c2c(Cl)cc(C(F)(F)F)cc2Cl)c1C(F)(F)F,185 to 190
6,O=C(O)C(=O)c1ccc(OCCCn2c(=O)c3ccccc3c3ccccc32)cc1,202 to 204
7,CCOC(=O)C(=NOC(C)C)c1csc(N)n1,162 to 164
8,COC(=O)CNC(=O)c1cncc(F)c1,80 to 82
9,CN1CCC(Nc2nc3ccccc3n2Cc2cnccn2)CC1,169
10,COC(=O)c1nn(-c2ccc(CBr)cc2)nc1C,122 to 125
11,COc1ccc2c(c1)cc(C(=O)O)n2C(C)=O,173 to 175
12,O=c1[nH]c2cc(Cl)cc(Cl)c2oc1=O,312
13,Fc1ccc(Cn2c(NC3CCN(CCNc4ncc[nH]4)CC3)nc3ccccc32)cc1,226
14,C[C@H](NC(=O)OC(C)(C)C)C(=O)NC1CCC(Nc2cccc3c2C(=O)c2ccccc2C3=O)CC1 (stereo not given in full),151
15,O=C(OCc1ccccc1)C(C(=O)OCc1ccccc1)n1cccc1,48.5 to 49
16,O=C(NC(Cc1ccccc1Cl)C(=O)N1CCSC1)c1cc2cc(Cl)ccc2[nH]1 (stereo not given),214 to 216
17,O=C(O)C(=O)c1ccc(OCCOc2ccc3ccccc3c2)c(Cl)c1,167 to 168
18,COc1cc(OC)cc(N2CCN(C(=O)Nc3cc4ccccc4cc3OC)CC2)c1,191 to 193
19,NC(=S)Nc1cc(Cl)ccc1N1CCOCC1,174 to 175
20,O=C(Nc1ccccc1)NC(Cc1c[nH]c2ccccc12)C(=O)NCc1cc(C(F)(F)F)cc(C(F)(F)F)c1 (stereo not given),219 to 221
